Measurements as given in patent US20200368211A1, “INHIBITION OF GAMMA-GLUTAMYLTRANSFERASE AND GLUTATHIONE CATABOLISM TO ENHANCE THE EFFICACY OF NF-KB SIGNALLING PATHWAY INHIBITORS” (UNIVERSITAET HEIDELBERG, priority 2017, published 2020).
Read-outs that look alike come from different tables or passages of the source.

Assays:
Type in all cases: cell-based, human
MEC1 cells [1] = assay: MTT cell proliferation assay, MEC1 cells
Description: For metabolic activity assays, here MTT-assays, cell density was 3×10^4 cells per well (96 well plate). For ROS/superoxide detection assays cell density was 1×10^5 per tube (volume 1 ml). For NF-κB family member activation assays nuclear cell extracts were used (9×10^6 cells/6 ml volume in 6 well plates). The MTT or XTT assay is the most reliable for assessment of cell growth. In principal all assays are based on staining of viable cells after treatment. Cytotoxic effects in cell lines may also be assessed by [^3H] thymidine incorporation (see below). Cell proliferation was assessed by the MTT assay. […] The plates were incubated for 72 h under standard conditions. After addition of 15 μl of a 5 mg/ml MTT solution (MTT; Sigma, Germany) to each well and incubation for another 4 h, 100 μl/well of a 10% sodium dodecyl sulphate solution in 0.01 M hydrochloric acid were added and the plates were incubated overnight under the same conditions (stain development). Subsequently, the absorbance of each well at 540 nm (reference wavelength 690 nm) was recorded with an absorbance plate reader (Sunrise, Tecan, Switzerland). Blank control values (no drug, no cells) were subtracted from the sample values and the means of replicate wells for each drug dilution and the control (cells grown in absence of the drug) were used to calculate the extent of relative cell proliferation (as percentage of the control) and growth inhibition.

HL60 cells = assay: MTT cell proliferation assay, HL60 cells
Description: For assessment of cytostatic and/or cytotoxic effects HL60 cells were washed in serum-free RPMI-1640 medium supplemented with 2 mM L-glutamine and 1% penicillin/streptomycin and diluted to 1.25×10^5/ml (logarithmic cell growth). Cells were incubated with OU749 for 10 minutes prior to addition of serum (FCS or HS, both 10%) to washed cells resulting in a density of 1.11×10^5/ml. For MTT-assays cell density was 1×10^4 cells per well (96 well plate).
The MTT or XTT assay is the most reliable for assessment of cell growth. In principal all assays are based on staining of viable cells after treatment. Cytotoxic effects in cell lines may also be assessed by [^3H] thymidine incorporation (see below). Cell proliferation was assessed by the MTT assay. After washing in serum-free medium, pre-incubation with inhibitors of the glutathione catabolism, and addition of defined serum or albumin or serum+albumin concentrations, 90-μl aliquots of the cell suspension (density see above) were dispensed into 96-well flat-bottomed microtitre plates containing 10 μl/well of serial drug dilutions. The plates were incubated for 72 h under standard conditions. After addition of 15 μl of a 5 mg/ml MTT solution (MTT; Sigma, Germany) to each well and incubation for another 4 h, 100 μl/well of a 10% sodium dodecyl sulphate solution in 0.01 M hydrochloric acid were added and the plates were incubated overnight under the same conditions (stain development). Subsequently, the absorbance of each well at 540 nm (reference wavelength 690 nm) was recorded with an absorbance plate reader (Sunrise, Tecan, Switzerland). Blank control values (no drug, no cells) were subtracted from the sample values and the means of replicate wells for each drug dilution and the control (cells grown in absence of the drug) were used to calculate the extent of relative cell proliferation (as percentage of the control) and growth inhibition. Since inhibitors were initially dissolved in DMSO, serial drug dilutions and controls were prepared to finally achieve 0.2% DMSO in all wells (total volume 100 μl); no anti-proliferative effects could be observed at this DMSO concentration in the investigated cell lines.
After washing in serum-free medium cells were diluted to desired density (3.70×10^5/ml for MEC1 and MOLM13, 1.25×10^5/ml for HL60) and HS and FCS was added both in a final concentration of 10%. Then 90-μl aliquots of the cell suspension (densities after addition of serum: 3.33×10^5/ml for MEC1 and MOLM13, 1.1×10^5/ml for HL60) were dispensed into 96-well flat-bottomed microtitre plates containing 10 μl/well of serial drug dilutions of NF-κB inhibitors. The cell concentrations in the 96 well plate were: 3×10^4/well for MEC1 and MOLM13, 1×10^4/well for HL60.
Then 90-μl aliquots of the cell suspension (densities after addition of serum: 3.33×10^5/ml for MEC1 and MOLM13, 1.1×10^5/ml for HL60) were dispensed into 96-well flat-bottomed microtitre plates containing 10 μl/well of serial drug dilutions of NF-κB inhibitors. The cell concentrations in the 96 well plates were: 3×10^4/well for MEC1 and MOLM13, 1×10^4/well for HL60.

MEC1 cells [2] = assay: Intracellular ROS/superoxide detection by flow cytometry, MEC1 cells; conditions: 10% FCS (OU749 100 μM) and 10% HS (OU749 200 μM); sorafenib 10 μM
Description: (§1) Intracellular ROS/superoxide levels were assessed by the ROS/superoxide Detection Assay Kit (ab139476, Abcam, Cambridge, UK) according to the manufacturer's protocol.
(§2) Cells were incubated with OU749 for 10 minutes prior to addition of serum or albumin (FCS or HS, both 10%, BSA or different HSA preparations as indicated), or albumin-supplemented FCS (supplementation with HSA or BSA: final albumin concentration 4-5 mg/ml). The final cell concentration was 1×10^5/ml/tube (volume 1 ml). Mean fluorescence intensities of at least 10000 events were assessed and compared.
(§3) ROS and superoxide levels were assessed by flow cytometry using the cellular ROS/superoxide Detection Assay Kit (ab139476, Abcam, Cambridge, UK) according to the manufacturer's protocol. […] Mean fluorescence intensities of at least 10000 events were assessed and compared.

MOLM13 cells = assay: Intracellular ROS/superoxide detection by flow cytometry, MOLM13 cells; conditions: 10% FCS (OU749 100 μM) and 10% HS (OU749 200 μM); sorafenib 10 nM
Description: as §1, §2, §3

[3] = 10% HS, DMSO control, 72 h treatment, read-out: IC50, proliferation of MEC1 cells in HS, DMSO control
[4] = 10% HS, plus 200 μM OU749, 72 h treatment, read-out: IC50, proliferation of MEC1 cells in HS after addition of OU749
[5] = 10% fetal calf serum, 72 h treatment, read-out: IC50, proliferation of MEC1 cells, FCS 10%
[6] = 10% human serum, 72 h treatment, read-out: IC50, proliferation of MEC1 cells, HS 10%
[7] = 10% HS, DMSO control, 72 h treatment, read-out: IC50, proliferation of HL60 cells in HS, DMSO control
[8] = 10% HS, plus 200 μM OU749, 72 h treatment, read-out: IC50, proliferation of HL60 cells in HS after addition of OU749
[9] = 10% fetal calf serum, 72 h treatment, read-out: IC50, proliferation of HL60 cells, FCS 10%
[10] = 10% human serum, 72 h treatment, read-out: IC50, proliferation of HL60 cells, HS 10%
[11] = Homo sapiens, MEC1, 10% HS, DMSO control, 72 h treatment, read-out: IC50, proliferation of MEC1 cells in HS, DMSO control
[12] = Homo sapiens, MEC1, 10% HS, plus 200 μM OU749, 72 h treatment, read-out: IC50, proliferation of MEC1 cells in HS after addition of OU749
[13] = Homo sapiens, MEC1, 10% fetal calf serum, 72 h treatment, read-out: IC50, proliferation of MEC1 cells, FCS 10%
[14] = MEC1, 10% human serum, 72 h treatment, read-out: IC50, proliferation of MEC1 cells, HS 10%
[15] = HL-60, 10% human serum, 72 h treatment, read-out: IC50, proliferation of HL60 cells, HS 10%
[16] = Homo sapiens, HL-60, 10% HS, DMSO control, 72 h treatment, read-out: IC50, proliferation of HL60 cells in HS, DMSO control
[17] = Homo sapiens, HL-60, 10% HS, plus 200 μM OU749, 72 h treatment, read-out: IC50, proliferation of HL60 cells in HS after addition of OU749
[18] = Homo sapiens, HL-60, 10% fetal calf serum, 72 h treatment, read-out: IC50, proliferation of HL60 cells, FCS 10%

Compound	IC50 (MEC1 cells [1]; [3])	IC50 (MEC1 cells [1]; [4])	IC50 (MEC1 cells [1]; [5])	IC50 (MEC1 cells [1]; [6])	IC50 (HL60 cells; [7])	IC50 (HL60 cells; [8])	IC50 (HL60 cells; [9])	IC50 (HL60 cells; [10])	Intracellular ROS, NF-κB inhibitor in combination with γ-GT inhibitor, MEC1 (MEC1 cells [2])	Intracellular ROS, NF-κB inhibitor in combination with γ-GT inhibitor, MOLM13 (MOLM13 cells)	IC50 (MEC1 cells [1]; [11])	IC50 (MEC1 cells [1]; [12])	IC50 (MEC1 cells [1]; [13])	IC50 (MEC1 cells [1]; [14])	IC50 (HL60 cells; [15])	IC50 (HL60 cells; [16])	IC50 (HL60 cells; [17])	IC50 (HL60 cells; [18])
O=C1/C(=C/c2ccccc2F)CNC/C1=C\c1ccccc1F [EF24]	13.8 ± 4.93 µM	1.06 ± 0.25 µM	1.66 ± 0.44 µM	13.8 ± 4.93 µM	4.27 ± 0.1 µM	0.67 ± 0.15 µM	1.75 ± 0.33 µM	4.27 ± 0.1 µM	increases the levels of intracellular ROS	increases the levels of intracellular ROS								
CNC(=O)c1cc(Oc2ccc(NC(=O)Nc3ccc(Cl)c(C(F)(F)F)c3)cc2)ccn1 [Sorafenib, sorafenib]									increases the levels of intracellular ROS	increases the levels of intracellular ROS	34.2 ± 2.9 µM	12.7 ± 1.18 µM	3.03 µM	34.2 µM	35.2 ± 10 µM	35.2 ± 10.3 µM	9.65 ± 1.06 µM	1.44 µM
Cc1ccc(S(=O)(=O)/C=C/C#N)cc1 [Bay 11-7082]	9.15 ± 1.73 µM	4.64 ± 0.41 µM	1.85 ± 0.04 µM	9.15 ± 1.73 µM	5.04 ± 0.32 µM	2.9 ± 0.16 µM	2.47 ± 0.3 µM	5.04 ± 0.32 µM	increases the levels of intracellular ROS	increases the levels of intracellular ROS								
Cc1oncc1C(=O)Nc1ccc(C(F)(F)F)cc1 [Leflunomide, leflunomide]									increases the levels of intracellular ROS	increases the levels of intracellular ROS	586 ± 29.8 µM	176 ± 22.1 µM	72.5 ± 5.12 µM	586 ± 29.8 µM	77.1 ± 2.91 µM	77.1 ± 2.91 µM	20.3 ± 4.53 µM	16.3 ± 1.12 µM
